Data from article PMC6733959, “Synthesis and Evaluations of Novel Apocynin Derivatives as Anti-Glioma Agents” (Frontiers in Pharmacology, 2019).

Columns and labels:
[1] = Transport experiment in the in vitro BBB cell model; format: in vitro ADME; conditions: Sprague-Dawley, rat, apical to basolateral, mean ± SD (n = 3-4), read-out: Papp × 10^−6; for Papp at 90 min, 100 μM: C0 100 μM; for Papp at 90 min, 20 μM: C0 20 μM
Experimental: (§1) Rat brain microvascular endothelial cells (BMECs) were separated from the cerebral cortex of 18-day-old male Sprague-Dawley rats as described previously ([Biegel et al., 1995]). Briefly, the cerebral cortical tissues were dissected from meninges after the rats were sacrificed, then the tissues were homogenated in physiological buffer solution (pH 7.4). After centrifugation, the pellets were collected, and the microvascular segments were then digested with 0.1% collagenase II at 37°C for 1 h. […] The second passage was used for co-culture of BBB cellular models.
Astrocytes were separated from the cerebral cortex of newborn Sprague-Dawley rats (1–2 days) as described previously ([Jeliazkova-Mecheva and Bobilya, 2003]). The brain tissues (removal of the meninges and blood vessel) were minced and mechanical homogenized and then digested with 0.25% trypsin-EDTA at 37°C for 10 min.
The in vitro BBB cell model was constructed in the Transwell 24well plate ([…], Millipore, USA). Before the experiment, the transwell filters were coated with matrigel matrix. The isolated rat astroglias were seeded onto one side of polycarbonate inserts (5 × 10^4 cells/insert). After 3 to 5 days, the rat BMECs were seeded at a density of 1.5 × 10^5 cells/insert onto the opposite side of the inserts to produce rat BMEC monolayers. The in vitro BBB cell model was formed 3 to 4 days. Trans-epithelial electrical resistance (TEER) measurements were performed everyday after the co-cultures formed until the TEER value increased to […] ([Yang et al., 2014]) ( Figure 2C ).
The transport experiments were performed by adding 400 μl HBSS containing the compounds to the apical side (AP), with 600μl HBSS to the basolateral side (BL) at the same time. Samples (60 μl) were collected from the BL chamber at the time points of 15, 30, 60, 90, 120, and 180 min, and the corresponding volume of HBSS buffer was immediately added into the BL chamber. The samples were precipitated by methanol, and the concentrations of the compounds in the samples were determined by high-performance liquid chromatography (HPLC). The HPLC conditions were as follows: Agilent TC-C18 column (250 × 4.6 mm; 5 μm), methanol 1% ethanoic acid mobile phase (from 10:90 to 90:10, v/v), with gradient elution at a flow rate of 1.0 ml/min. The detection wavelength was 275 nm for these compounds. The run time was 20 min. The apparent permeability coefficients (P app) were calculated from the following formula: P app = (∆Q/∆t)/(A × C 0), where ∆Q/∆t is the linear appearance rate of the compound on the BL side (μmol/s), A is the surface area of the cell monolayer (cm^2), and C 0 is the initial concentration of the drug on the AP side (μmol/L).

[2] = tested on: rat BMECs; assay: Cytotoxicity of apocynin derivatives on rat BMECs (MTT, 24 h); format: cell-based; conditions: 100 μM, vs control, P < 0.05
Experimental: as §1
Rat BMECs were collected and seeded into 96-well culture plates at a density of 7.5 × 10^3 cells/well overnight. The cells were treated with different concentrations of the compounds (10, 20, and 100 μM) for 24 h, respectively. Then, 20-μl MTT (5 mg/ml) in fresh medium was added to each well and incubated for another 4 h. Finally, 150μl dimethyl sulfoxide (DMSO) was added to dissolve formazan crystals, and the absorbance was detected at 490 nm in a multiwall-plate reader (BioTek ELx800).

[3] = tested on: rat C6 glioma cells; assay: Anti-glioma MTT assay, C6 cells; format: cell-based; conditions: for Anti-proliferation effect on C6 cells (first screening): 10, 20, 100 μM, compared with D1, P < 0.05; for IC50: Rattus norvegicus, C6 cells
Experimental: (§2) The anti-glioma effects of these compounds were evaluated by MTT assay in rat C6 glioma cells, human glioma U87 and U251 cells, and BMECs cells. Brieﬂy, cells were seeded at the density of 4,000 cells/well in 96-well plates overnight. For the first screening, the cells were incubated with 10, 20, 100 μM compounds for 48 h. Then cell viabilities were detected by MTT assay as described above. For the second screening, the cells were incubated with 6.25-, 12.5-, 25-, 50-, and 100μM compounds for 48 and 96 h, and then detected by MTT assay. The OD of each well was measured at 490 nm on an ELISA microplate reader. The inhibitory rates and IC50 values were calculated.

[4] = cited from earlier work; for BBB penetration rate relative to morphine: ref Oldendorf et al., 1972
[5] = tested on: human glioma U87 cells; assay: Anti-glioma MTT assay, U87 cells; format: cell-based; conditions: for Anti-proliferation effect on U87 cells (first screening): 10, 20, 100 μM, compared with D1, P < 0.05; for IC50: Homo sapiens, U-87 MG, U87 cells
Experimental: as §2

[6] = tested on: BMECs; assay: MTT assay on normal BMECs (48 and 96 h); format: cell-based; conditions: Rattus norvegicus
Experimental: as §1, §2

[7] = tested on: C6 glioma; assay: Rat C6 glioma model; format: in vivo; conditions: C6 glioma-bearing Wistar rats, 25 mg/kg i.p. daily; for Tumor volume vs control group: MRI 13 days after treatment
Experimental: C6 glioma model was established as previously reported ([Xu etal., 2016]). The C6 glioma cells in the logarithmic growth phase were collected for implantation. Male Wistar rats (male, 160–180g) were anesthetized with 10% chloral hydrate, and then a hole (1 mm diameter) was drilled in the cranial bone. C6 cells in PBS were injected slowly (3 × 10^6 cells/rat).
Tumors in the brains of the rats were detected by Bruker 7.0 T Micro-MRI using a T2W RARE sequence (TR/TE 3000/15 ms; slice thickness, 1.0 mm; flip angle, 180°; Matrix 256×256; slice gap, 1.0 mm; FOV, 33×33 mm; time, 4.8 min) 7 days after implantation. Tumor volumes (V) were calculated by the following formula: V = (4/3 × π × LHW)/8, where L is the maximum anteroposterior diameter, H and W are the height and width. Then the rats were sacrificed, and the brain tissues were fixed with formalin, embedded in paraffin, sectioned, and subjected to hematoxylin/eosin (HE) staining and immunohistochemical staining for glial fibrillary acidic protein (GFAP) as previously described ([Xu et al., 2016]). The sections from each animal were analyzed by a pathologist. Only rats with maximum intracerebral tumor diameter of >5.0 mm were used.
After the successful implantation, the rats were randomly divided into […] and treated with different drugs by intraperitoneal injection daily: control group (PBS, n = 6), TMZ group (25 mg/kg, n = 6), D14 group (25 mg/kg, n = 6), and D31 group (25 mg/kg, n = 6). The body weights were recorded everyday after administration. Thirteen days after treatment, brain tumors in the rats were detected by Bruker 7.0 T Micro-MRI as described above. Tumor volumes were calculated and recorded as above.

[8] = tested on: human glioma U251 cells; assay: Anti-glioma MTT assay, U251 cells; format: cell-based
Experimental: as §2

[9] = set-up: method as in Wang et al., 2008; conditions: ref Wang et al., 2008; cited from earlier work
[10] = tested on: NADPH oxidase (NOX); assay: NOX activity determination, C6 cells; format: cell-based, rat; conditions: 20 and 50 μM
Experimental: (§3) The effects of candidate drug on NOX activities were measured using cytochrome c reductase (NADPH) Assay Kit (Sigma-Aldrich, St. Louis, MO, USA). Brieﬂy, after the compound treatment (20, 50 μM), the cells were collected and homogenized in an isotonic buffer ([…]), and centrifuged at 1,000 g to obtain the post-nuclear supernatants. Then 50μl samples were added to 950μl working solution (at 25°C) in a 1ml cuvette and mixed by inversion. Then 20μl cytochrome c oxidase inhibitor solution was added. After reaction with 100 μl NADPH solution, the cytochrome c absorbance was monitored at 550 nm by a spectrophotometer.

[11] = tested on: NADPH oxidase (NOX); assay: NOX activity determination, U87 cells; format: cell-based, human; conditions: 20 and 50 μM
Experimental: as §3

COc1cc(C(=O)CNc2ccc(F)cc2F)ccc1O [Compound D21, 2-((2,4-Difluorophenyl)Amino)-1-(4-Hydroxy-3-Methoxyphenyl)Ethan-1-One]
Papp at 90 min, 100 μM [1]: 6.08 ± 0.65 ×10⁻⁶ cm/s

COc1cc(C(=O)CSCc2ccccc2)ccc1O [Compound D33, 2-(Benzylthio)-1-(4-Hydroxy-3-Methoxyphenyl)Ethan-1-One]
Effect on cell viability of rat BMECs [2]: significantly inhibit the cell viability
Papp at 90 min, 20 μM [1]: 9.58 ± 2.35 ×10⁻⁶ cm/s
Anti-proliferation effect on C6 cells (first screening) ([3]; 48 h): significant anti-proliferation effects

CCC1(c2ccccc2)C(=O)NC(=O)NC1=O [Phenobarbital, 5-ethyl-5-phenylbarbituric acid]
BBB penetration rate relative to barbituric acid ([4]; ref Liu et al., 2007): increased BBB penetration rate

COc1cc(C(=O)CNc2ccc(F)cc2)ccc1O [Compound D14, 2-((4-Fluorophenyl)amino)-1-(4-Hydroxy-3-Methoxyphenyl)Ethan-1-One]
Effect on cell viability of rat BMECs [2]: significantly inhibit the cell viability
Papp at 90 min, 20 μM [1]: 4.24 ± 1.3 ×10⁻⁶ cm/s
Anti-proliferation effect on U87 cells (first screening) ([5]; 48 h): significant anti-proliferation effects
IC50 ([5]; 48 h): 61.6 µM
IC50 ([5]; 96 h): 60.1 µM
IC50 ([6]; 48 h): > 100 µM
IC50 ([6]; 96 h): 78.2 µM
Body weight changes vs control group [7]: no obvious body weight changes
Tumor volume vs control group [7]: no obvious growth inhibitory effects
IC50 ([8]; U-251, 48 h): 71.6 µM
IC50 ([8]; U-251, 96 h): 34.5 µM
Anti-proliferation effect on C6 cells (first screening) ([3]; 48 h): significant anti-proliferation effects
IC50 ([3]; 48 h): 37.2 µM
IC50 ([3]; 96 h): 22.9 µM

COc1cc(C(=O)CNc2ccc(F)cc2)ccc1OCc1ccccc1 [Compound D6, 1-(4-(Benzyloxy)-3-Methoxyphenyl)-2-((4-Fluorophenyl)Amino) Ethan-1-One]
Papp at 90 min, 100 μM [1]: 8.68 ± 0.45 ×10⁻⁶ cm/s

COc1cc(NCC(=O)c2ccc(O)c(OC)c2)cc(OC)c1 [Compound D16, 2-((3,5-Dimethoxyphenyl)Amino)-1-(4-Hydroxy-3-Methoxyphenyl)Ethan-1-One]
Effect on cell viability of rat BMECs [2]: significantly inhibit the cell viability
Papp at 90 min, 20 μM [1]: 2.54 ± 0.58 ×10⁻⁶ cm/s

COc1cc(C(=O)CNc2ccc(Cl)cc2)ccc1O [Compound D22, 2-((4-Chlorophenyl)Amino)-1-(4-Hydroxy-3-Methoxyphenyl)Ethan-1-One]
Papp at 90 min, 100 μM [1]: 5.42 ± 0.58 ×10⁻⁶ cm/s

COc1cc(C(=O)CSCc2ccc(F)cc2)ccc1O [Compound D34, 2-((4-Fluorobenzyl)Thio)-1-(4-Hydroxy-3-Methoxyphenyl)Ethan-1-One]
Effect on cell viability of rat BMECs [2]: significantly inhibit the cell viability
Papp at 90 min, 20 μM [1]: 11.9 ± 1.53 ×10⁻⁶ cm/s
Anti-proliferation effect on C6 cells (first screening) ([3]; 48 h): significant anti-proliferation effects

CC(=O)Oc1ccc2c3c1O[C@H]1[C@@H](OC(C)=O)C=C[C@H]4[C@@H](C2)N(C)CC[C@@]341 [heroin, diacetylmorphine]
BBB penetration rate relative to morphine [4]: 100 times

COc1cc(C(=O)CNc2ccccc2)ccc1OCc1ccccc1 [Compound D5, 1-(4-(Benzyloxy)-3-Methoxyphenyl)-2-(Phenylamino)Ethan-1-One]
Papp at 90 min, 100 μM [1]: 10.3 ± 0.31 ×10⁻⁶ cm/s

COc1cc(C(C)=O)ccc1O [Compound D1, 4-hydroxy-3-methoxyacetophenone, reference compound]
Effect on cell viability of rat BMECs [2]: significantly inhibit the cell viability
Papp at 90 min, 20 μM [1]: 4.95 ± 0.39 ×10⁻⁶ cm/s
Amount in the brain tissue relative to that present in the blood [9]: < 8%
Effect on NOX activities vs control [10]: significantly inhibited
Effect on NOX activities vs control [11]: significantly inhibited

Cn1nnc2c(C(N)=O)ncn2c1=O [TMZ, Temozolomide, reference compound]
Effect on cell viability of rat BMECs [2]: significantly inhibit the cell viability
Papp at 90 min, 20 μM [1]: 7.74 ± 0.34 ×10⁻⁶ cm/s
Anti-proliferation effect on U87 cells (first screening) ([5]; 48 h): significant anti-proliferation effects
IC50 ([5]; 48 h): 54.1 µM
IC50 ([5]; 96 h): 28.4 µM
IC50 ([6]; 48 h): 94.5 µM
IC50 ([6]; 96 h): 54.4 µM
Body weight changes vs control group [7]: no obvious body weight changes
Tumor volume vs control group [7]: significantly decreased
IC50 ([8]; U-251, 48 h): 48.1 µM
IC50 ([8]; U-251, 96 h): 15.3 µM
Anti-proliferation effect on C6 cells (first screening) ([3]; 48 h): significant anti-proliferation effects
IC50 ([3]; 48 h): 51.1 µM
IC50 ([3]; 96 h): 36.8 µM

COc1ccc2c3c1O[C@H]1[C@@H](O)C=C[C@H]4[C@@H](C2)N(C)CC[C@@]341 [codeine]
BBB penetration rate relative to morphine [4]: 10 times

COc1cc(C(=O)CNc2ccccc2)ccc1O [Compound D13, 1-(4-Hydroxy-3-Methoxyphenyl)-2-(Phenylamino)Ethan-1-One]
Effect on cell viability of rat BMECs [2]: significantly inhibit the cell viability
Papp at 90 min, 20 μM [1]: 5.41 ± 0.52 ×10⁻⁶ cm/s
Anti-proliferation effect on C6 cells (first screening) ([3]; 48 h): significant anti-proliferation effects
